Assay results: the supplement of paper PMC10883282
± gives the standard deviation of the averaged measurements.

What was measured:
Assay in all cases: relative viability vs DMSO control (72 h) (fraction); higher = more viable cells
[1] = system: SW872
Outline: (§1)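 Sarcoma cell lines were seeded in 384-well plates at densities set to reach 80–90% confluence. After 24 h, 2.5 µl of serially diluted compound was added (source plates 10 mM to 0.0002 mM), and plates were held 72 h at 37 °C, 5% CO2, with 0.1% DMSO vehicle and a 5 µM positive control. Relative viability came from ATPLite readings as percent growth, averaged over up to triplicate wells. Data were rescaled so full viability equals 1 and none equals 0.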

[2] = system: SW684
Outline: as §1

[3] = system: SW982
Outline: as §1

[4] = system: A204
Outline: as §1

[5] = system: KHOS-NP
Outline: as §1

[6] = system: RD-ES
Outline: as §1

[7] = system: SK-LMS-1
Outline: as §1

[8] = system: G401
Outline: as §1

[9] = system: VA-ES-BJ
Outline: as §1

[10] = system: SK-ES-1
Outline: as §1

[11] = system: HS729
Outline: as §1

[12] = system: HT1080
Outline: as §1

Cc1[nH]c(/C=C2\C(=O)Nc3ccccc32)c(C)c1CCC(=O)O [Orantinib]
Settings | relative viability
[1], 0.00017 µM | 1.1 ± 0.053
[1], 0.00051 µM | 1.12 ± 0.083
[1], 0.00152 µM | 1.09 ± 0.036
[1], 0.00457 µM | 1.1 ± 0.06
[1], 0.01372 µM | 1.09 ± 0.045
[1], 0.04115 µM | 1.08 ± 0.03
[1], 0.1235 µM | 1.06 ± 0.015
[1], 0.3704 µM | 1.04 ± 0.024
[1], 1.111 µM | 1.08 ± 0.03
[1], 3.333 µM | 1.05 ± 0.037
[1], 10 µM | 1.013 ± 0.0074
[2], 0.00017 µM | 1.19 ± 0.053
[2], 0.00051 µM | 1.19 ± 0.086
[2], 0.00152 µM | 1.23 ± 0.043
[2], 0.00457 µM | 1.23 ± 0.039
[2], 0.01372 µM | 1.18 ± 0.078
[2], 0.04115 µM | 1.18 ± 0.12
[2], 0.1235 µM | 1.19 ± 0.091
[2], 0.3704 µM | 1.16 ± 0.05
[2], 1.111 µM | 1.12 ± 0.031
[2], 3.333 µM | 1.05 ± 0.06
[2], 10 µM | 0.967 ± 0.058
[3], 0.00017 µM | 1.06 ± 0.023
[3], 0.00051 µM | 1.11 ± 0.038
[3], 0.00152 µM | 1.1 ± 0.016
[3], 0.00457 µM | 1.1 ± 0.045
[3], 0.01372 µM | 1.09 ± 0.046
[3], 0.04115 µM | 1.1 ± 0.028
[3], 0.1235 µM | 1.08 ± 0.031
[3], 0.3704 µM | 1.044 ± 0.0096
[3], 1.111 µM | 1.01 ± 0.043
[3], 3.333 µM | 0.935 ± 0.055
[3], 10 µM | 0.931 ± 0.025
[4], 0.00017 µM | 1.07 ± 0.04
[4], 0.00051 µM | 1.12 ± 0.014
[4], 0.00152 µM | 1.12 ± 0.073
[4], 0.00457 µM | 1.09 ± 0.036
[4], 0.01372 µM | 1.14 ± 0.026
[4], 0.04115 µM | 1.086 ± 0.0063
[4], 0.1235 µM | 1.13 ± 0.068
[4], 0.3704 µM | 1.05 ± 0.043
[4], 1.111 µM | 1.03 ± 0.052
[4], 3.333 µM | 0.976 ± 0.019
[4], 10 µM | 0.881 ± 0.03
[5], 0.00017 µM | 1.088 ± 0.0069
[5], 0.00051 µM | 1.122 ± 0.0089
[5], 0.00152 µM | 1.12 ± 0.012
[5], 0.00457 µM | 1.12 ± 0.024
[5], 0.01372 µM | 1.11 ± 0.018
[5], 0.04115 µM | 1.11 ± 0.037
[5], 0.1235 µM | 1.11 ± 0.044
[5], 0.3704 µM | 1.1 ± 0.03
[5], 1.111 µM | 1.09 ± 0.034
[5], 3.333 µM | 1.1 ± 0.043
[5], 10 µM | 1.08 ± 0.046
[6], 0.00017 µM | 1.02 ± 0.017
[6], 0.00051 µM | 0.9951 ± 0.0033
[6], 0.00152 µM | 1.01 ± 0.015
[6], 0.00457 µM | 1.03 ± 0.031
[6], 0.01372 µM | 1.03 ± 0.026
[6], 0.04115 µM | 1.02 ± 0.034
[6], 0.1235 µM | 1.01 ± 0.044
[6], 0.3704 µM | 1 ± 0.025
[6], 1.111 µM | 0.977 ± 0.032
[6], 3.333 µM | 0.983 ± 0.019
[6], 10 µM | 0.932 ± 0.031
[7], 0.00017 µM | 1.06 ± 0.015
[7], 0.00051 µM | 1.072 ± 0.0029
[7], 0.00152 µM | 1.06 ± 0.034
[7], 0.00457 µM | 1.04 ± 0.036
[7], 0.01372 µM | 1.05 ± 0.027
[7], 0.04115 µM | 1.07 ± 0.055
[7], 0.1235 µM | 1.04 ± 0.033
[7], 0.3704 µM | 1.032 ± 0.0044
[7], 1.111 µM | 0.994 ± 0.032
[7], 3.333 µM | 0.971 ± 0.043
[7], 10 µM | 0.8874 ± 0.0061
[8], 0.00017 µM | 1.07 ± 0.049
[8], 0.00051 µM | 1.11 ± 0.044
[8], 0.00152 µM | 1.07 ± 0.023
[8], 0.00457 µM | 1.08 ± 0.035
[8], 0.01372 µM | 1.07 ± 0.032
[8], 0.04115 µM | 1.04 ± 0.016
[8], 0.1235 µM | 1.057 ± 0.0082
[8], 0.3704 µM | 1.06 ± 0.036
[8], 1.111 µM | 1.05 ± 0.026
[8], 3.333 µM | 1.058 ± 0.0054
[8], 10 µM | 0.966 ± 0.02
[9], 0.00017 µM | 1.11 ± 0.018
[9], 0.00051 µM | 1.1 ± 0.015
[9], 0.00152 µM | 1.116 ± 0.011
[9], 0.00457 µM | 1.096 ± 0.0071
[9], 0.01372 µM | 1.06 ± 0.045
[9], 0.04115 µM | 1.053 ± 0.005
[9], 0.1235 µM | 1.1 ± 0.036
[9], 0.3704 µM | 1.07 ± 0.04
[9], 1.111 µM | 1.028 ± 0.0071
[9], 3.333 µM | 1.05 ± 0.016
[9], 10 µM | 0.998 ± 0.032
[10], 0.00017 µM | 1.05 ± 0.031
[10], 0.00051 µM | 1.06 ± 0.03
[10], 0.00152 µM | 1.06 ± 0.042
[10], 0.00457 µM | 1.04 ± 0.044
[10], 0.01372 µM | 1.04 ± 0.053
[10], 0.04115 µM | 1.06 ± 0.089
[10], 0.1235 µM | 1.02 ± 0.039
[10], 0.3704 µM | 1.06 ± 0.065
[10], 1.111 µM | 0.999 ± 0.067
[10], 3.333 µM | 0.982 ± 0.058
[10], 10 µM | 0.998 ± 0.025
[11], 0.00017 µM | 1.07 ± 0.053
[11], 0.00051 µM | 1.09 ± 0.043
[11], 0.00152 µM | 1.08 ± 0.058
[11], 0.00457 µM | 1.06 ± 0.043
[11], 0.01372 µM | 1.04 ± 0.072
[11], 0.04115 µM | 1.04 ± 0.054
[11], 0.1235 µM | 0.997 ± 0.057
[11], 0.3704 µM | 0.966 ± 0.023
[11], 1.111 µM | 0.923 ± 0.014
[11], 3.333 µM | 0.923 ± 0.021
[11], 10 µM | 0.889 ± 0.015
[12], 0.00017 µM | 1.09 ± 0.059
[12], 0.00051 µM | 1.1 ± 0.033
[12], 0.00152 µM | 1.13 ± 0.044
[12], 0.00457 µM | 1.11 ± 0.024
[12], 0.01372 µM | 1.08 ± 0.029
[12], 0.04115 µM | 1.07 ± 0.053
[12], 0.1235 µM | 1.11 ± 0.033
[12], 0.3704 µM | 1.09 ± 0.043
[12], 1.111 µM | 1.05 ± 0.022
[12], 3.333 µM | 0.991 ± 0.031
[12], 10 µM | 0.947 ± 0.065
